Read-outs that look alike come from different tables or passages of the source.

The target in one test is T1, CDK1:Cyclin-B (Homo sapiens, UniProt P06493).
T1 construct: purchased New England Biolabs, Beverly, Mass; 6020; host or cells: insect cells
The test is described as follows: CDK1 Screening Assay. Format: biochemical. How it is done: (§1) A kinase reaction mixture was prepared containing 50 mM Tris-HCl pH=8, 10 mM MgCl2, 0.1 mM Na3PO4, 1 mM DTT, 10 μM ATP, 0.025 μM biotinylated histone-H1 peptide substrate and 0.2 μCuries per well ^33P-γ-ATP (2000-3000 Ci/mmol). 70 μL of the kinase reaction mixture was dispensed into the well of a streptavidin coated FlashPlate™ (Cat. # SMP103, NEN, Boston, Mass.). Then 1 μL of test compound stock in 100% DMSO was added to the wells resulting in a final concentration of 1% DMSO in the reaction with a 100 μL final reaction volume.
(§2) The CDK1:Cyclin-B protein was diluted in 50 mM Tris-HCl pH=8.0, 0.1% BSA at a concentration of 1 ng per μL and 30 μL (30 ng enzyme per test well) was added to each well to initiate the reaction. The reaction was incubated for one hour at 30° C. At the end of the 1 hour incubation, the reaction was terminated by aspirating the mixture from the plate and washing the wells twice with PBS containing 100 mM EDTA. The histone-H1 biotinylated peptide substrate became immobilized on the Flashplate™ and the incorporation of ^33P-γ-ATP was measured by reading the plate on a scintillation counter. Inhibition of the enzymatic activity of CDK1 was measured by observing a reduced amount of ^33P-γ-ATP incorporated into the immobilized peptide.
The CDK1 used was isolated from insect cells expressing both the human CDK1 catalytic subunit and its positive regulatory subunit cyclin B (New England Biolabs, Beverly, Mass., Cat. #6020).

For test [1], the target named is T2, rat VEGF-R2 kinase domain (Rattus norvegicus, UniProt O08775).
T2 construct: amino acids 786-1343 of the rat VEGF-R2 kinase domain; polyhistidine (N)
Put plainly: VEGF-R2 Screening Assay. Format: biochemical.

A further test relates to A375 malignant melanoma. The test is described as follows: Inhibition of in vitro cell proliferation (A375).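 Also: cells plated for 24 h, given compound for 24 h, then labelled with 14C-thymidine for another 24 h, with DMSO-only wells as control and counts read by scintillation.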 It counts as cell-based, human.
Test [2] concerns HeLa cervical adenocarcinoma. The test is described as follows: Inhibition of in vitro cell proliferation (HeLa).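 Also: cells exposed to compound for 24 h, then labelled 24 h with methyl 14C-thymidine, with uptake into DNA counted by scintillation against DMSO-only control wells.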 It counts as cell-based, human. The note with it: 14C-thymidine incorporation.
A further test addresses T3, HER2 cytoplasmic domain (Homo sapiens, UniProt P04626).
T3 construct: polyhistidine (N)
Put plainly: HER2 Kinase Screening Assay. Format: biochemical. As to conditions: > means no observed 50% inhibition at the indicated test concentration; ~ means approximately 50% inhibition at that concentration. How it is done: as §1, §2
The HER2 kinase assay was carried out using the CDK kinase assay procedure except that the enzyme was replaced with a HER2 construct containing a polyhistidine tag at the N-terminus followed by 24 additional amino acids and the HER2 cytoplasmic domain beginning at amino acid 676 (Accession #M11730) to the end.

The next test addresses T4, murine Aurora-A (Mus musculus, UniProt P97477).
T4 construct: replaced with the full length protein encoding the murine Aurora-A; made in house; host or cells: sf9 insect cells
T4 sequence (P97477 1-395): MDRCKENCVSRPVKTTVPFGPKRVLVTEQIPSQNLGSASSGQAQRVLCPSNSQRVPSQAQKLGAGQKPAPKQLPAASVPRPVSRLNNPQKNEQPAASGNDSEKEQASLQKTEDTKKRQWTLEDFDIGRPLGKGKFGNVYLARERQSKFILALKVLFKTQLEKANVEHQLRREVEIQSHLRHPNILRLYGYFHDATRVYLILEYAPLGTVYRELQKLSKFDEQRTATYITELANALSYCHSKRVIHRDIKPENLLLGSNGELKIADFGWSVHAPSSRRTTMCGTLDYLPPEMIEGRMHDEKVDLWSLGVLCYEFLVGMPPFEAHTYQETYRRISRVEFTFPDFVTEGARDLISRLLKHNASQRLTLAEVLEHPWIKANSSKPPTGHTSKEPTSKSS
The test is described as follows: Aurora-A Screening Assay. It counts as biochemical. The procedure: as §1, §2
The Aurora-A kinase assay was carried out using the CDK kinase assay procedure except that the enzyme was replaced with the full length protein encoding the murine Aurora-A (Accession #GB BC014711) expressed and purified from sf9 insect cells.

The next test has as its system HCT-116 colon carcinoma. The test is described as follows: Inhibition of in vitro cell proliferation (HCT116).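 Also: cells exposed to compound for 24 h, then 14C-thymidine added for a further 24 h and its uptake into DNA counted by scintillation, DMSO-only wells as control.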 Format: cell-based, human.
[3] abbreviates: > means no observed 50% inhibition at the indicated test concentration, ~ means approximately 50% inhibition at that concentration, read-out: IC50 VEGF-R2.
Setting [4] is: Homo sapiens, A-375, 14C-thymidine incorporation.
[5] abbreviates: Homo sapiens, HCT-116, 14C-thymidine incorporation.

T1 sequence (P06493 whole entry): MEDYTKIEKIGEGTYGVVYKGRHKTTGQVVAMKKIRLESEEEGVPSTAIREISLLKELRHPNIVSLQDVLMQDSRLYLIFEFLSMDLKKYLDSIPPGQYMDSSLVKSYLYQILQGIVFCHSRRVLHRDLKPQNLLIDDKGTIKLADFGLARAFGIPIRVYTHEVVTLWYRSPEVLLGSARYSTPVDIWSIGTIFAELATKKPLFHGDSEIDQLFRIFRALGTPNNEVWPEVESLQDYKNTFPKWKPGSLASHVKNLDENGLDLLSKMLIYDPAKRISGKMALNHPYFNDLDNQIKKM
T1 sequence (P14635 whole entry partner): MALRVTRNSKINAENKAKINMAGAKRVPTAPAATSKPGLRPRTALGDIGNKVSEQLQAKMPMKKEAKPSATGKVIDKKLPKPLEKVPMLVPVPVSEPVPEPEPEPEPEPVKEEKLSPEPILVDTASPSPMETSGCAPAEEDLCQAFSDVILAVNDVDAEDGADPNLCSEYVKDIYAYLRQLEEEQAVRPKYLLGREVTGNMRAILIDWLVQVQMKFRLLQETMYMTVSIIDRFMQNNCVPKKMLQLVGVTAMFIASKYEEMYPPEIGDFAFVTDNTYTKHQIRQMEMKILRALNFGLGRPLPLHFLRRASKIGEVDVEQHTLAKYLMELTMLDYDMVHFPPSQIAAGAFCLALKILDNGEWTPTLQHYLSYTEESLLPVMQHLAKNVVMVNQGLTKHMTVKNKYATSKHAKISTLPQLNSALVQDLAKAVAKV
T3 sequence (P04626 676-1255 limits assumed): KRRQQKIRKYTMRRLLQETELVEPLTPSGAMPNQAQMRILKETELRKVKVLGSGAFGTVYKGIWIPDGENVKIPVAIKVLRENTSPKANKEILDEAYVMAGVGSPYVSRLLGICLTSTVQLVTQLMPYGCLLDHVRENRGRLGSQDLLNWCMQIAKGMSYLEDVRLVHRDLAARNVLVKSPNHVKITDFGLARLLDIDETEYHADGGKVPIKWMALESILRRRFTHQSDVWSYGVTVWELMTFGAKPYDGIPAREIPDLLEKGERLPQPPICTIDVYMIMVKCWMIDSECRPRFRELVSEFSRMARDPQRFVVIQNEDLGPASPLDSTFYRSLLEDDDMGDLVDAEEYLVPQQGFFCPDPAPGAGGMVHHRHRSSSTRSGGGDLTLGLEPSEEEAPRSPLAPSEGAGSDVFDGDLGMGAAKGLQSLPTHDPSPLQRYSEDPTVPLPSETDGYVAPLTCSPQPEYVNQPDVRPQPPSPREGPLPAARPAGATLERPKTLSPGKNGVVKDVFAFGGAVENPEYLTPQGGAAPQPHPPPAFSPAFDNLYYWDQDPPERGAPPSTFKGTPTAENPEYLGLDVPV
T2 sequence (O08775 786-1343): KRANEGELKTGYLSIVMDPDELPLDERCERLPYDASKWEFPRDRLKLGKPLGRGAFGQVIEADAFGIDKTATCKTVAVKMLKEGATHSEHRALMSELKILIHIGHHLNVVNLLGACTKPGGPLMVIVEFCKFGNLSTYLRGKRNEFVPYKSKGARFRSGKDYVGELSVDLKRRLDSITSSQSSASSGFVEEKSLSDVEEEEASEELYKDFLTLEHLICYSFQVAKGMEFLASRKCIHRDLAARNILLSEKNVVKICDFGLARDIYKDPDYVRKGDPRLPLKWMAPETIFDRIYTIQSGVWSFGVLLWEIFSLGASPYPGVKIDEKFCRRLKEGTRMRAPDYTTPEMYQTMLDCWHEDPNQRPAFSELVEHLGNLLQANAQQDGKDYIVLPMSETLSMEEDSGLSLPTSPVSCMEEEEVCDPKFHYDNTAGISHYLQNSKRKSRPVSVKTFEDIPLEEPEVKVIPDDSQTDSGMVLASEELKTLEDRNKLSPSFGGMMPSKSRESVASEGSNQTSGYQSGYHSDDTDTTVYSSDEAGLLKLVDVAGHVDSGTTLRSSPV

As for `CON=Cc1c(N)ncnc1Oc1ccc2c(c1)cc(C)n2C(=O)NCCO` [Cpd 39, 5-[6-amino-5-(methoxyimino-methyl)-pyrimidin-4-yloxy]-2-methyl-indole-1-carboxylic acid (2-hydroxy-ethyl)-amide], the IC50 was above 100 µM on CDK1:Cyclin-B; 108 nM in test [1] (setting [3]); 3.77 µM in the test on A375 malignant melanoma (setting [4]); 4.37 µM in test [2] (Homo sapiens); above 10 µM on HER2 cytoplasmic domain; above 100 µM at murine Aurora-A. This compound gave an IC50 in the test on HCT-116 colon carcinoma (setting [5]) of 3.43 µM.
Take `CON=Cc1c(N)ncnc1Oc1ccc(O)cc1` [Cpd 67, 4-amino-6-(4-hydroxy-phenoxy)-pyrimidine-5-carbaldehyde O-methyl-oxime]: the IC50 on CDK1:Cyclin-B is above 100 µM; in test [1] (setting [3]), 4360 nM; in the test with A375 malignant melanoma (setting [4]), 3.22 µM; in test [2] (Homo sapiens), 3.99 µM; against HER2 cytoplasmic domain, 13.1 µM; on murine Aurora-A it was 17.8 µM. In addition, in the test on HCT-116 colon carcinoma (setting [5]), the IC50 is 2.95 µM.
With `CON=Cc1c(N)ncnc1Oc1ccc(NC(=O)NCCN(C)C)c(Cl)c1` [Cpd 82, 1-{4-[6-amino-5-(methoxyimino-methyl)-pyrimidin-4-yloxy]-2-chloro-phenyl}-3-(2-dimethylamino-ethyl)-urea], the IC50 against CDK1:Cyclin-B was above 100 µM; in test [1] (setting [3]), 285 nM; with A375 malignant melanoma (setting [4]), above 10 µM; in test [2] (Homo sapiens), above 10 µM; against HER2 cytoplasmic domain it was above 10 µM; on murine Aurora-A, above 100 µM. The IC50 in the test with HCT-116 colon carcinoma (setting [5]) is above 10 µM.
Consider `CON=Cc1c(N)ncnc1Oc1ccc(NC(=O)Nc2ccc(OC)cc2)c(Cl)c1` [Cpd 62, 1-{4-[6-amino-5-(methoxyimino-methyl)-pyrimidin-4-yloxy]-2-chloro-phenyl}-3-(4-methoxy-phenyl)-urea], for which the IC50 on CDK1:Cyclin-B was above 100 µM; in test [1] (setting [3]), 1.6 nM; in the test with A375 malignant melanoma (14C-thymidine incorporation) it was above 100 µM; in test [2] it was above 100 µM; at HER2 cytoplasmic domain, above 100 µM; on murine Aurora-A, above 100 µM. The same compound displayed an IC50 in the test on HCT-116 colon carcinoma (14C-thymidine incorporation) above 100 µM.
In the case of `CON=Cc1c(N)ncnc1Oc1ccc(CC(=O)Nc2ccccc2)cc1` [Cpd 97, 2-{4-[6-amino-5-(methoxyimino-methyl)-pyrimidin-4-yloxy]-phenyl}-N-phenyl-acetamide], the IC50 against CDK1:Cyclin-B was above 100 µM; in test [1] (setting [3]), 40.7 nM; in the test on A375 malignant melanoma (setting [4]), above 10 µM; in test [2] (Homo sapiens), above 10 µM; on HER2 cytoplasmic domain, 1.31 µM; at murine Aurora-A it was above 100 µM. In addition, the IC50 in the test on HCT-116 colon carcinoma (setting [5]) was above 10 µM.
Turning to `CON=Cc1c(N)ncnc1Oc1ccc(NC(=O)Nc2ccccc2F)c(Cl)c1` [Cpd 56, 1-{4-[6-amino-5-(methoxyimino-methyl)-pyrimidin-4-yloxy]-2-chloro-phenyl}-3-(2-fluoro-phenyl)-urea], the IC50 on CDK1:Cyclin-B is above 100 µM; in test [1] (IC50 VEGF-R2), 3.3 nM; in the test with A375 malignant melanoma (setting [4]), above 10 µM; in test [2] (Homo sapiens) it was above 10 µM; against HER2 cytoplasmic domain, above 10 µM; on murine Aurora-A, above 100 µM. In the test on HCT-116 colon carcinoma (setting [5]), this compound displayed an IC50 above 10 µM.
Take `CON=Cc1c(N)ncnc1Oc1ccc(CC(=O)Nc2ccc(C)cc2)cc1` [Cpd 99, 2-{4-[6-amino-5-(methoxyimino-methyl)-pyrimidin-4-yloxy]-phenyl}-N-p-tolyl-acetamide]: the IC50 is above 100 µM against CDK1:Cyclin-B; 8 nM in test [1] (setting [3]); above 100 µM in the test with A375 malignant melanoma (setting [4]); above 100 µM in test [2] (Homo sapiens); 0.217 µM against HER2 cytoplasmic domain; above 100 µM against murine Aurora-A. This compound showed a half-maximal inhibitory concentration (IC50) in the test with HCT-116 colon carcinoma (setting [5]) above 100 µM.
Turning to `C#CCNC(=O)Nc1ccc(Oc2ncnc(N)c2C=NOC)cc1Cl` [Cpd 79, 1-{4-[6-amino-5-(methoxyimino-methyl)-pyrimidin-4-yloxy]-2-chloro-phenyl}-3-prop-2-ynyl-urea], the IC50 against CDK1:Cyclin-B is above 100 µM; in test [1] (setting [3]), 27.5 nM; in the test with A375 malignant melanoma (setting [4]) it was 2.2 µM; in test [2] (Homo sapiens), 3.58 µM; on HER2 cytoplasmic domain, above 100 µM; on murine Aurora-A, above 100 µM. Also, the IC50 with HCT-116 colon carcinoma (setting [5]) stood at 3.72 µM.
As for `CON=Cc1c(N)ncnc1Oc1ccc(NC(=O)Nc2ccc(F)cc2)c(Br)c1` [Cpd 74, 1-{4-[6-amino-5-(methoxyimino-methyl)-pyrimidin-4-yloxy]-2-bromo-phenyl}-3-(4-fluoro-phenyl)-urea], the IC50 was above 100 µM against CDK1:Cyclin-B; around 100000 nM in test [1] (setting [3]); above 10 µM with A375 malignant melanoma (setting [4]); above 100 µM in test [2] (Homo sapiens); above 1 µM against HER2 cytoplasmic domain; above 100 µM on murine Aurora-A. In the test with HCT-116 colon carcinoma (setting [5]), this compound had an IC50 above 100 µM.
On to `Cc1cc2c(F)c(Oc3ncnc(N)c3C=NOCC3CC3)ccc2[nH]1` [Cpd 32, 4-amino-6-(4-fluoro-2-methyl-1H-indol-5-yloxy)-pyrimidine-5-carbaldehyde O-cyclopropylmethyl-oxime], for which the IC50 against CDK1:Cyclin-B was above 100 µM; in test [1] (setting [3]) it was 46 nM; with A375 malignant melanoma (setting [4]), 0.07 µM; in test [2] (Homo sapiens), 0.324 µM; at HER2 cytoplasmic domain, above 100 µM; against murine Aurora-A, above 100 µM. For the same compound, it took 0.333 µM to reach half-maximal inhibition with HCT-116 colon carcinoma (setting [5]) (IC50).
Consider `CON=Cc1c(N)ncnc1Oc1ccc(NC(=O)Nc2cccc(C)c2)c(Cl)c1` [Cpd 76, 1-{4-[6-amino-5-(methoxyimino-methyl)-pyrimidin-4-yloxy]-2-chloro-phenyl}-3-m-tolyl-urea], for which the IC50 is above 100 µM at CDK1:Cyclin-B; 2 nM in test [1] (setting [3]); above 10 µM in the test on A375 malignant melanoma (setting [4]); above 10 µM in test [2] (Homo sapiens); above 10 µM against HER2 cytoplasmic domain; above 100 µM at murine Aurora-A. This compound also registered a 50% inhibitory concentration (IC50) in the test with HCT-116 colon carcinoma (setting [5]) above 10 µM.
Consider `CNC(=O)Nc1ccc(Oc2ncnc(N)c2C=NOC)cc1F` [Cpd 72, 1-{4-[6-amino-5-(methoxyimino-methyl)-pyrimidin-4-yloxy]-2-fluoro-phenyl}-3-methyl-urea], for which the IC50 at CDK1:Cyclin-B was above 100 µM; in test [1] (setting [3]), 142 nM; with A375 malignant melanoma (setting [4]) it was above 10 µM; in test [2] (Homo sapiens), above 10 µM; against HER2 cytoplasmic domain it was above 10 µM; against murine Aurora-A it was above 100 µM. The IC50 with HCT-116 colon carcinoma (setting [5]) is above 10 µM.
For `CON=Cc1c(N)ncnc1Oc1ccc(NC(=O)Nc2ncc(C)s2)c(Cl)c1` [Cpd 90, 1-{4-[6-amino-5-(methoxyimino-methyl)-pyrimidin-4-yloxy]-2-chloro-phenyl}-3-(5-methyl-thiazol-2-yl)-urea], the IC50 against CDK1:Cyclin-B is above 100 µM; in test [1] (setting [3]) it was 37 nM; with A375 malignant melanoma (setting [4]), above 10 µM; in test [2] (Homo sapiens), above 100 µM; on HER2 cytoplasmic domain, above 1 µM; at murine Aurora-A, above 10 µM. Also, the IC50 in the test on HCT-116 colon carcinoma (setting [5]) is above 10 µM.
Consider `CNC(=O)Nc1ccc(Oc2ncnc(N)c2C=NOC)c(Cl)c1` [Cpd 70, 1-{4-[6-amino-5-(methoxyimino-methyl)-pyrimidin-4-yloxy]-3-chloro-phenyl}-3-methyl-urea], for which the IC50 was above 100 µM against CDK1:Cyclin-B; 278 nM in test [1] (setting [3]); 2.55 µM in the test with A375 malignant melanoma (setting [4]); 4.06 µM in test [2] (Homo sapiens); above 100 µM on HER2 cytoplasmic domain; above 10 µM against murine Aurora-A. Also, the IC50 with HCT-116 colon carcinoma (setting [5]) was found to be 4.86 µM.
Consider `CON=Cc1c(N)ncnc1Oc1ccc(NC(=O)Nc2cccnc2)c(Cl)c1` [Cpd 87, 1-{4-[6-amino-5-(methoxyimino-methyl)-pyrimidin-4-yloxy]-2-chloro-phenyl}-3-pyridin-3-yl-urea], for which the IC50 was above 100 µM against CDK1:Cyclin-B; 10 nM in test [1] (setting [3]); 3.41 µM in the test with A375 malignant melanoma (setting [4]); 4.63 µM in test [2] (Homo sapiens); above 1 µM against HER2 cytoplasmic domain; above 100 µM against murine Aurora-A. In the test with HCT-116 colon carcinoma (setting [5]), this compound displayed a half-maximal inhibitory concentration (IC50) of 4.67 µM.
